Data on 2 molecules can be found in patent US4382030A, “2-Acylaminomethyl-1,4-benzodiazepine derivatives and their salts, pharmaceutical compositions thereof and process for their preparation” (Kali-Chemie Pharma GmbH, priority 1979, dated 1983).

Type in all cases: in vivo
Series [1] relates to male mice. In words: Determination of the Minimal Toxic Dose (oral, mice). The settings on record: mouse, p.o.; observed 3 h, symptoms and deaths over 24 h. The protocol:
1. Determination of the Minimal Toxic Dose.
Maximum doses of 300 mg/kg of the test compound are administered orally to three male mice having a weight of 20-25 g and toxicity symptoms are carefully observed for a period of three hours. Furthermore, over a period of 24 hours from the administration all symptoms and deaths are registered. Side-symptoms are also observed and registered. Depending on their water solubility, the test compounds are administered either in form of aqueous solutions or in form of suspensions without the use of solvents. In order to maintain a stable suspension of the test compound, one drop of Tween-80 can be added and the mixture can be mechanically homogenized. In the case of compounds where deaths or toxic symptoms have been observed, additional mice are treated with decreasing doses until a dose is reached at which no toxic symptoms occur. The lowest dose which causes toxic symptoms is considered the minimal toxic dose.

The test system of series [2] is mice (tail flick, heat beam pain reaction). In words: Tail flick Test in Mice. The settings on record: sc, 0.5 h; mouse, s.c.; 30 minutes after administration; >75% increase of reaction time in 50% of animals. The method, then: (§1) This analgesic activity has been evaluated in two pharmacological standard methods, the tail flick test in mice and the arthritis pain test in rats.
3. Tail flick Test in Mice.
This test is carried out according to the method described by D'Amour and Smith (1941), yet fed male and female mice having a body weight of 16 to 25 g are used instead of rats. Thirty minutes prior to treatment with the test compound, each mouse is placed separately in a cylindrical container in such a manner that it cannot turn itself or move forward. Its tail is positioned in a narrow groove projecting out of the container. A certain point of the tail of each animal (about 35 mm beyond the root of the tail) is subjected to the heat beam of a lamp of known strength and temperature which is positioned directly under the tail. The number of seconds which pass before the mouse moves its tail out of the light beam is determined twice, once 30 minutes and once 15 minutes prior to subcutaneous administration of the test compound (10 mg/kg). Mice which show a reaction time differing more than 25% are eliminated from the test. The reaction time is again determined 15 minutes and 30 minutes after the treatment and an increase of the reaction period of more than 75% of the average values prior to treatment in the same animal is considered as showing an analgesic effect. The ED50 (95% reliability) of each test compound 30 minutes after administration is evaluated according to the method of Litchfield and Wilcoxon (1949). The dose which increases the reaction time as compared to the reaction time prior to treatment for more than 75% in 50% of the animals is considered as ED50.
A general note: In hot-plate and tail-flick tests a longer latency is read as antinociception.

In series [3] the test system is rats (secondary arthritis pain, mycobacterium smegmae). In words: Arthritis Pain Test in Rats. The note with it: po, rat, p.o., 3 hours after administration, protection in 50% of treated animals. The protocol:
as §1
2. Arthritis Pain Test in Rats.
Male rats having a weight of from 160 to 180 g are anesthetized by small i.p. injection of 20 mg/kg of sodium pentobarbital and 0.1 ml of a suspension of mycobacterium smegmae (SI 043) in liquid paraffin (0.6 mg mycobacterium/0.1 ml of oil) are injected intracutaneously into the left rear paw. Fourteen days later when a marked secondary arthritis has developed in particular in the right rear paw, the effect of the test compound is evaluated. A control-reading is taken 30 minutes prior to administration of the test compound by bending the foot joint of the right rear paw three times and counting the number of squeakings. […] Three hours after oral administration of the test compound the bending of the joint is repeated. Animals which squeak only once or not at all are considered to be protected against pain. Between about 9 and 20 rats are used per dose and the ED50 (95% reliability) is determined according to the method of Litchfield and Wilcoxon (1949). The dose which provides protection in 50% of the treated animals is taken as ED50.

Turning to `CN1c2ccccc2C(c2ccccc2F)=NCC1CNC(=O)c1ccsc1` (stereo not drawn) [Compound 20, 1-methyl-2-[(thiophene-3-carbonyl)-aminomethyl]-5-(2-fluorophenyl)-1H-2,3-dihydro-1,4-benzodiazepine], the “MDL (minimal toxic dose)” value in series [1] was over 300 mg/kg. Further, the median effective dose (ED50) in series [2] was 1.1 mg/kg; in series [3], 18 mg/kg.
For `CN1c2ccccc2C(c2ccccc2F)=NCC1CNC(=O)c1cccs1` (stereo not drawn) [Compound 21, 1-methyl-2-[(thiophene-2-carbonyl)-aminomethyl]-5-(2-fluorophenyl)-1H-2,3-dihydro-1,4-benzodiazepine], in that order: over 300 mg/kg, 6.2 mg/kg and 13 mg/kg.

The ED50 is the dose that gives a 50% effect, or the effect in half of the subjects. Low values mean greater potency, high ones weaker potency.
